Source: US7235576B1, “Omega-carboxyaryl substituted diphenyl ureas as raf kinase inhibitors” (Bayer Pharmaceuticals Corporation, priority 2001, dated 2007)

Row | SMILES | melting point [°C]
1 | COC(=O)c1ccc(Oc2ccc(NC(=O)Nc3ccc(Cl)c(C(F)(F)F)c3)cc2)cn1 [Entry 55, N-(4-chloro-3-(trifluoromethyl)phenyl)-N′-(4-(2-(methoxycarbonyl)-5-pyridyloxy)phenyl)urea] | 228 to 230
2 | CNC(=O)c1cc(Oc2ccc(NC(=O)Nc3ccc(Oc4ccnc(C(=O)NC)c4)cc3)cc2)ccn1 [Entry 103, bis(4-(2-(N-methylcarbamoyl)-4-pyridyloxy)phenyl)urea] | 125 to 130
